In patent US20080269338A1, “AQUEOUS SOLUTIONS CONTAINING CHLORAMINE WHICH ARE FREE FROM DI-AND TRICHLOROAMINE, AS WELL AS FROM AMMONIA” (priority 2007, published 2008):
Read-outs that look alike come from different tables or passages of the source.

Experiments:
[1] = Example 5: penetration through the human cornea (diffusion chamber); settings: room temperature
Protocol: A human cornea was clamped in a specially designed chamber. The upper compartment was filled with the disinfectant, while the lower one contained the buffer solution. The system was equilibrated for 2, 4, and 6 hours at room temperature, and afterwards the oxidation capacity was determined in the buffer solution of the lower compartment.

[2] = rabbit eye (Nagl et al.); cited from earlier work
[3] = human eye (Nagl et al.); cited from earlier work
[4] = Example 2: stability of a pure monochloramine solution (UV spectrum); type: physicochemical; settings: three days storage in the refrigerator at 0-3° C.
Protocol: A solution of 1 g each of N-chlorotaurine and ammonium chloride in 100 mL water was distilled in a rotavapor (water stream vacuum, water bath temperature 50° C.). The distillate contained, according to the UV spectrum, […] pure monochloramine (NH2Cl, absorption band at λmax=244 nm, A244=0.9812, d=0.1 cm, ε244=461.6 L mol^−1 cm^−1). After three days storage in the refrigerator at 0-3° C., the band at 244 disappeared, while two bands at 203 nm (A=1.146) and 294 nm (A0 0.148) appeared which are characteristic for the chromophor —NCl2. Gottardi et al., supra.

bacteria = experiment: Killing tests, bacterial strains in general; type: cell-based; settings: preliminary experiments, without NCT
Protocol: Microbicidal activity. […] The impact of ammonium chloride on the microbicidal activity of NCT could be confirmed in several bacterial strains (FIG. 4).
Bacterial strains, Staphylococcus aureus ATCC 25923 and 6538, Staphylococcus epidermidis ATCC 12228, Escherichia coli ATCC 11229, Proteus mirabilis ATCC 14153, Pseudomonas aeruginosa ATCC 27853, and a clinical isolate of […] deep-frozen for storage were grown overnight on tryptic soy agar (Merck, Darmstadt, Germany). Colonies from this agar were grown in tryptic soy broth (Merck, Darmstadt, Germany) at 37° C. overnight and washed twice with saline.
Killing tests. Bacteria were diluted in buffered test solution to concentrations of 1×10^6 to 5×10^7 CFU/mL. Immediately and subsequent to different incubation times at room temperature, aliquots were removed, and NCT with or without ammonium chloride or plain monochloramine was inactivated by 10-fold dilution in 0.3% sodium thiosulfate. Aliquots (50 μL) of these solutions as well as of 100-fold further dilutions in saline were spread onto tryptic soy agar plates with an automatic spiral plater (Don Whitley Scientific Limited, West Yorkshire, UK) in duplicates allowing a detection limit of 200 CFU/mL. Plates were grown at 37° C., and CFU were counted after 24 and 48 hours. Controls without NCT were treated the same way.

[5] = Stability of active chlorine compound with ammonium salt in water (pH, oxidation capacity); type: physicochemical
[6] = with ammonium, 0.1 M phosphate buffer
[7] = with excess ammonium, no buffer

## O=S(=O)(O)CCNCl [NCT, N-chlorotaurine]
[1]; after 2 hours
  Diffused oxidation capacity, from the starting value in the upper compartment: 1.3%
[1]; after 4 hours
  Diffused oxidation capacity, from the starting value in the upper compartment: 4.8%
[1]; after 6 hours
  Diffused oxidation capacity, from the starting value in the upper compartment: 25.4%
[2]
  Tolerability: good tolerability
[3]
  Tolerability: good tolerability

## NCl [monochloramine]
[4]
  Conversion of NH2Cl to NHCl2: complete conversion of NH2Cl to NHCl2

## Cl.N [Ammonium chloride]
bacteria
  Influence on viability: no influence on viability

## [Ca+2].[O-]Cl.[O-]Cl [Calcium hypochlorite]
[5]
  Behaviour with ammonium compared with chloramine-T: behave in the same manner

## Cc1ccc(S(=O)(=O)NCl)cc1.[Na] [chloramine-T, N-chloro-4-toluenesulfonamide sodium]
[5]; [6]
  Loss of oxidation capacity within 1 hour: 90%
  pH within 2 hours: 6.3
  pH, start: 7.0
[5]; [7]
  pH within 8 minutes: 2.9
  pH, start: 6.8

## O=c1nc([O-])n(Cl)c(=O)n1Cl.[Na+] [sodium dichloro-isocyanurate]
[5]
  Behaviour with ammonium compared with chloramine-T: behave in the same manner
